Measured values from PubChem BioAssay AID256 (DTP/NCI, 2004).
Values joined by “and” are separate entries in the source; they are usually repeats but may differ in a detail not shown here. Equal values may be shown once. Inconclusive results and toxic doses are left out.

System: CD2F1 mice, L1210 leukemia ip, survival T/C
Assay: NCI In Vivo Anticancer Drug Screen. Data for tumor model L1210 Leukemia (intraperitoneal) in CD2F1 (CDF1) mice
Conditions: higher = longer survival
Outline: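 Implant tumor; dose compound or vehicle; measure endpoint in both groups; report treated divided by control.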

[1] = endpoint: mean survival time, dose: 20.0 mg/kg/injection, schedule: Q01DX001 (ip), vehicle: saline
[2] = endpoint: mean survival time, dose: 100.0 mg/kg/injection, schedule: Q01DX001 (ip), vehicle: saline
[3] = endpoint: mean survival time, dose: 200.0 mg/kg/injection, schedule: Q01DX001 (ip), vehicle: saline
[4] = endpoint: mean survival time, dose: 100.0 mg/kg/injection, schedule: Q04DX002 (ip), vehicle: saline with Tween-80
[5] = endpoint: mean survival time, dose: 200.0 mg/kg/injection, schedule: Q04DX002 (ip), vehicle: saline with Tween-80
[6] = endpoint: mean survival time, dose: 100.0 mg/kg/injection, schedule: Q01DX001 (ip), vehicle: saline with Tween-80
[7] = endpoint: mean survival time, dose: 100.0 mg/kg/injection, schedule: Q01DX009 (ip), vehicle: saline with Tween-80
[8] = endpoint: mean survival time, dose: 100.0 mg/kg/injection, schedule: Q04DX003 (ip), vehicle: saline with Tween-80
[9] = endpoint: mean survival time, dose: 200.0 mg/kg/injection, schedule: Q01DX009 (ip), vehicle: saline with Tween-80
[10] = endpoint: mean survival time, dose: 200.0 mg/kg/injection, schedule: Q04DX003 (ip), vehicle: saline with Tween-80
[11] = endpoint: mean survival time, dose: 50.0 mg/kg/injection, schedule: Q01DX009 (ip), vehicle: saline with Tween-80

## CS(=O)(=O)OCCCN(CCCOS(C)(=O)=O)CCCN1CCOCC1
endpoint: mean survival time, dose: 10.0 mg/kg/injection, schedule: Q01DX009 (ip), vehicle: saline
  T/C: 197 % of control
endpoint: mean survival time, dose: 12.0 mg/kg/injection, schedule: Q01DX001 (ip), vehicle: saline
  T/C: 118 % of control
endpoint: mean survival time, dose: 12.5 mg/kg/injection, schedule: Q04DX003 (ip), vehicle: saline
  T/C: 122 % of control
[1]
  T/C: 150 % of control
endpoint: mean survival time, dose: 20.0 mg/kg/injection, schedule: Q01DX005 (ip), vehicle: saline
  T/C: 152 % of control
endpoint: mean survival time, dose: 20.0 mg/kg/injection, schedule: Q01DX009 (ip), vehicle: saline
  T/C: 230 % of control
endpoint: mean survival time, dose: 20.0 mg/kg/injection, schedule: Q02DX003 (ip), vehicle: saline
  T/C: 152 % of control
endpoint: mean survival time, dose: 20.0 mg/kg/injection, schedule: Q04DX003 (ip), vehicle: saline
  T/C: 156 % of control
endpoint: mean survival time, dose: 40.0 mg/kg/injection, schedule: Q01DX001 (ip), vehicle: saline
  T/C: 200 % of control
endpoint: mean survival time, dose: 40.0 mg/kg/injection, schedule: Q01DX005 (ip), vehicle: saline
  T/C: 182 % of control
endpoint: mean survival time, dose: 40.0 mg/kg/injection, schedule: Q01DX009 (ip), vehicle: saline
  T/C: 238 % of control
endpoint: mean survival time, dose: 40.0 mg/kg/injection, schedule: Q02DX003 (ip), vehicle: saline
  T/C: 166 % of control
endpoint: mean survival time, dose: 50.0 mg/kg/injection, schedule: Q01DX009 (ip), vehicle: saline
  T/C: 180 % of control
endpoint: mean survival time, dose: 50.0 mg/kg/injection, schedule: Q04DX003 (ip), vehicle: saline
  T/C: 122 % of control
endpoint: mean survival time, dose: 60.0 mg/kg/injection, schedule: Q01DX001 (ip), vehicle: saline
  T/C: 159 % of control
endpoint: mean survival time, dose: 60.0 mg/kg/injection, schedule: Q01DX005 (ip), vehicle: saline
  T/C: 189 % of control
endpoint: mean survival time, dose: 60.0 mg/kg/injection, schedule: Q01DX009 (ip), vehicle: saline
  T/C: 230 % of control
endpoint: mean survival time, dose: 60.0 mg/kg/injection, schedule: Q02DX003 (ip), vehicle: saline
  T/C: 191 % of control
endpoint: mean survival time, dose: 60.0 mg/kg/injection, schedule: Q04DX003 (ip), vehicle: saline
  T/C: 190 % of control
endpoint: mean survival time, dose: 75.0 mg/kg/injection, schedule: Q04DX003 (ip), vehicle: saline
  T/C: 162 % of control
endpoint: mean survival time, dose: 80.0 mg/kg/injection, schedule: Q01DX005 (ip), vehicle: saline
  T/C: 234 % of control
endpoint: mean survival time, dose: 80.0 mg/kg/injection, schedule: Q01DX009 (ip), vehicle: saline
  T/C: 290 % of control
endpoint: mean survival time, dose: 80.0 mg/kg/injection, schedule: Q02DX003 (ip), vehicle: saline
  T/C: 189 % of control
endpoint: mean survival time, dose: 80.0 mg/kg/injection, schedule: Q04DX003 (ip), vehicle: saline
  T/C: 206 % of control
[2]
  T/C: 153 % of control and 265 % of control
endpoint: mean survival time, dose: 100.0 mg/kg/injection, schedule: Q01DX005 (ip), vehicle: saline
  T/C: 281 % of control
endpoint: mean survival time, dose: 100.0 mg/kg/injection, schedule: Q01DX009 (ip), vehicle: saline
  T/C: 190 % of control and 270 % of control
endpoint: mean survival time, dose: 100.0 mg/kg/injection, schedule: Q02DX003 (ip), vehicle: saline
  T/C: 215 % of control
endpoint: mean survival time, dose: 100.0 mg/kg/injection, schedule: Q04DX003 (ip), vehicle: saline
  T/C: 165 % of control and 236 % of control
endpoint: mean survival time, dose: 150.0 mg/kg/injection, schedule: Q04DX003 (ip), vehicle: saline
  T/C: 197 % of control
[3]
  T/C: 234 % of control
endpoint: mean survival time, dose: 200.0 mg/kg/injection, schedule: Q01DX009 (ip), vehicle: saline
  T/C: 105 % of control
endpoint: mean survival time, dose: 200.0 mg/kg/injection, schedule: Q04DX003 (ip), vehicle: saline
  T/C: 228 % of control and 297 % of control

## COC(Cc1ccccc1)(c1ccccc1)c1ccccc1
[4]
  T/C: 95 % of control
[5]
  T/C: 102 % of control
endpoint: mean survival time, dose: 400.0 mg/kg/injection, schedule: Q04DX002 (ip), vehicle: saline with Tween-80
  T/C: 91 % of control

## Cc1nc(N)[nH]c(=O)c1CCCNc1cccnc1
[6]
  T/C: 96 % of control
endpoint: mean survival time, dose: 200.0 mg/kg/injection, schedule: Q01DX001 (ip), vehicle: saline with Tween-80
  T/C: 92 % of control
endpoint: mean survival time, dose: 400.0 mg/kg/injection, schedule: Q01DX001 (ip), vehicle: saline with Tween-80
  T/C: 92 % of control

## COC(=O)C1C2OC3C(OC(=O)C31)C2Br (stereo unspecified)
[7]
  T/C: 91 % of control
[8]
  T/C: 86 % of control
[9]
  T/C: 91 % of control
[10]
  T/C: 94 % of control
endpoint: mean survival time, dose: 400.0 mg/kg/injection, schedule: Q01DX009 (ip), vehicle: saline with Tween-80
  T/C: 95 % of control
endpoint: mean survival time, dose: 400.0 mg/kg/injection, schedule: Q04DX003 (ip), vehicle: saline with Tween-80
  T/C: 91 % of control

## COc1cccc(/C=C(\C(=O)O)c2cccc(OC)c2)c1
endpoint: mean survival time, dose: 50.0 mg/kg/injection, schedule: Q04DX002 (ip), vehicle: saline with Tween-80
  T/C: 89 % of control
[4]
  T/C: 86 % of control
[5]
  T/C: 104 % of control

## Cc1c(N)cc([N+](=O)[O-])c(C)c1[N+](=O)[O-]
[11]
  T/C: 110 % of control
[7]
  T/C: 104 % of control
[8]
  T/C: 98 % of control
[9]
  T/C: 117 % of control
[10]
  T/C: 98 % of control

## CCC[CH2][Sn]1([CH2]CCC)[O]C(=O)c2c(Cl)c(Cl)c(Cl)c(Cl)c2C(=O)[O]1
endpoint: mean survival time, dose: 5.0 mg/kg/injection, schedule: Q01DX001 (ip), vehicle: saline
  T/C: 101 % of control
endpoint: mean survival time, dose: 10.0 mg/kg/injection, schedule: Q01DX001 (ip), vehicle: saline
  T/C: 101 % of control
[1]
  T/C: 109 % of control

## OCC1OC(n2cnc3c(/C=C(/O)c4ccccc4)ncnc32)C(O)C1O (stereo unspecified)
endpoint: mean survival time, dose: 12.5 mg/kg/injection, schedule: Q01DX005 (ip), vehicle: distilled water + Tween-80
  T/C: 102 % of control
endpoint: mean survival time, dose: 25.0 mg/kg/injection, schedule: Q01DX005 (ip), vehicle: distilled water + Tween-80
  T/C: 91 % of control
endpoint: mean survival time, dose: 50.0 mg/kg/injection, schedule: Q01DX005 (ip), vehicle: distilled water + Tween-80
  T/C: 87 % of control
endpoint: mean survival time, dose: 100.0 mg/kg/injection, schedule: Q01DX005 (ip), vehicle: distilled water + Tween-80
  T/C: 90 % of control
endpoint: mean survival time, dose: 200.0 mg/kg/injection, schedule: Q01DX005 (ip), vehicle: distilled water + Tween-80
  T/C: 98 % of control

## CC(C)c1cc2ccccc2s1
[2]
  T/C: 96 % of control
[3]
  T/C: 102 % of control

## CCC(=O)Sc1ccccc1C(=O)Nc1ccc(Cl)cc1
endpoint: median survival time, dose: 25.0 mg/kg/injection, schedule: Q01DX009 (ip), vehicle: saline with Tween-80
  T/C: 112 % of control
endpoint: median survival time, dose: 50.0 mg/kg/injection, schedule: Q01DX009 (ip), vehicle: saline with Tween-80
  T/C: 111 % of control
endpoint: median survival time, dose: 100.0 mg/kg/injection, schedule: Q01DX009 (ip), vehicle: saline with Tween-80
  T/C: 107 % of control
endpoint: median survival time, dose: 200.0 mg/kg/injection, schedule: Q01DX009 (ip), vehicle: saline with Tween-80
  T/C: 112 % of control
endpoint: median survival time, dose: 400.0 mg/kg/injection, schedule: Q01DX009 (ip), vehicle: saline with Tween-80
  T/C: 86 % of control

## COc1ccc(CNCCCC2C3CCC(C3)C2CN)cc1 (stereo unspecified)
[8]
  T/C: 95 % of control
[10]
  T/C: 95 % of control

## [B-][N+](C)(C)Cc1ccccc1
endpoint: mean survival time, dose: 25.0 mg/kg/injection, schedule: Q01DX009 (ip), vehicle: saline with Tween-80
  T/C: 94 % of control
[11]
  T/C: 88 % of control
[6]
  T/C: 101 % of control

## O=C([CH-]C(=O)C(F)(F)F)c1ccccc1.O=C([CH-]C(=O)C(F)(F)F)c1ccccc1.O=C([CH-]C(=O)C(F)(F)F)c1ccccc1.O=C([CH-]C(=O)C(F)(F)F)c1ccccc1.[Eu+3].c1ccncc1
endpoint: mean survival time, dose: 12.5 mg/kg/injection, schedule: Q01DX009 (ip), vehicle: Klucel (hydroxypropylcellulose) (HPC)
  T/C: 95 % of control and 101 % of control
endpoint: mean survival time, dose: 25.0 mg/kg/injection, schedule: Q01DX009 (ip), vehicle: Klucel (hydroxypropylcellulose) (HPC)
  T/C: 101 % of control
endpoint: mean survival time, dose: 50.0 mg/kg/injection, schedule: Q01DX009 (ip), vehicle: Klucel (hydroxypropylcellulose) (HPC)
  T/C: 89 % of control and 106 % of control
endpoint: mean survival time, dose: 100.0 mg/kg/injection, schedule: Q01DX009 (ip), vehicle: Klucel (hydroxypropylcellulose) (HPC)
  T/C: 97 % of control and 109 % of control
endpoint: mean survival time, dose: 200.0 mg/kg/injection, schedule: Q01DX009 (ip), vehicle: Klucel (hydroxypropylcellulose) (HPC)
  T/C: 95 % of control and 100 % of control
endpoint: mean survival time, dose: 400.0 mg/kg/injection, schedule: Q01DX009 (ip), vehicle: Klucel (hydroxypropylcellulose) (HPC)
  T/C: 97 % of control and 100 % of control

## NC(=O)c1cccnc1
endpoint: mean survival time, dose: 175.0 mg/kg/injection, schedule: Q04HX040 (ip), vehicle: water
  T/C: 109 % of control
endpoint: mean survival time, dose: 350.0 mg/kg/injection, schedule: Q04HX040 (ip), vehicle: water
  T/C: 103 % of control
